This note sets out measurements from paper PMC10534827 (Pharmaceuticals, 2023).

Where two headings read alike, the source gives them in different places.

In experiment [1] the target is T1, butyrylcholinesterase from equine serum (Equus caballus, UniProt P81908).
T1 construct: butyrylcholinesterase from equine serum; purchased Sigma-Aldrich, Hamburg, Germany; host or cells: equine serum
Briefly: biochemical. The note with it: for inhibition at 1000 µM: read-out: Activity [%] (inhibition percentage of BChE).
Method: (§1) AChE and BChE inhibitory activity was measured using the microplate assay described by Ellman et al. [68] with the modifications added by López et al. [36]. The compounds were tested at concentrations between 10^−3 and 10^−8 M. First, all compounds were dissolved in 1% DMSO in a concentration of 1 mg/mL.
(§2) Incubation of the plates was performed at room temperature for 30 min. Then, 100 μL of substrate solution were added to start the enzymatic reaction. […] Enzyme activity was calculated as an inhibition percentage compared to an assay including buffer instead of an inhibitor. […] All data were analyzed with the software package Prism 3 (Graph Pad Inc., San Diego, CA, USA).

For experiment [2], the target named is T2, Acetylcholinesterase from Electrophorus electricus (Electrophorus electricus, UniProt O42275).
T2 construct: purchased Sigma-Aldrich, Hamburg, Germany
T2 sequence (O42275 24-633): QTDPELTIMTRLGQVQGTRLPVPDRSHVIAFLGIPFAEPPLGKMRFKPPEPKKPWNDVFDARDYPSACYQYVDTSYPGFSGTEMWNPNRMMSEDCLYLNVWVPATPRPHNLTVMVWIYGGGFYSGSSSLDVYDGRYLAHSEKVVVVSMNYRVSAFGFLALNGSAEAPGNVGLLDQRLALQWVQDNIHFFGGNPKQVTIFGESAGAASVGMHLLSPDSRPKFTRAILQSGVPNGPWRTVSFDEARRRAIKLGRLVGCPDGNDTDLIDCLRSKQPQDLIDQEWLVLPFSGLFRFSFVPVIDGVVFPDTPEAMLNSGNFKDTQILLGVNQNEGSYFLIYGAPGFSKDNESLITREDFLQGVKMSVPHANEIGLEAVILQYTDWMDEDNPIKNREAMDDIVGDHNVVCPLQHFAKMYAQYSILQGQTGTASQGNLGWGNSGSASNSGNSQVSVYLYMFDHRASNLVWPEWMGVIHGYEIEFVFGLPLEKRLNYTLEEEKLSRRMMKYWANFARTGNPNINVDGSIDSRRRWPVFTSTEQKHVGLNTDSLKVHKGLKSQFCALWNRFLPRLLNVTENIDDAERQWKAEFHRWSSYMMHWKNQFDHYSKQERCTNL
The experiment is described as follows: biochemical. It is filed as biochemical. The note with it: for inhibition at 1000 µM: 1 mM solution of the tested compound, read-out: Activity [%] (inhibition percentage of AChE); for IC50: mean ± SD of three experiments, read-out: AChE IC50.
Method: as §1, §2

The test system of a further experiment is SH-SY5Y cells. Briefly: MTT cytotoxicity, SH-SY5Y. It is filed as cell-based, human. The note with it: read-out: SH-SY5Y IC50.
A further experiment deals with Neuro-2a cells. Briefly: MTT cytotoxicity, Neuro-2a. It is filed as cell-based, murine. The note with it: read-out: Neuro-2a IC50.
A further experiment relates to CCL-1 cells. The experiment is described as follows: MTT cytotoxicity, CCL-1 normal fibroblasts. It is filed as cell-based, murine. The note with it: read-out: CCL-1 IC50.
A short description of experiment [3]: Lipid peroxidation in linoleic acid system, FTC method. The note with it: 10 mM compound, 500 nm.
Method: The antioxidant activity of studied compounds against lipid peroxidation was measured through ammonium thiocyanate assay as described by Takao et al. [66] with some modifications. […] A 10 μL aliquot of the reaction solution was then added to 200 μL of 70% (v/v) ethanol and 10 μL of 30% (w/v) ammonium thiocyanate. […] Aliquots were assayed every 24 h until the day after the absorbance of the control solution (without compound) reached maximum value. BHT (10 mM) was used as positive control.
[4] abbreviates: 1 mM solution of the tested compound.
Where [5] appears, read: mean ± SD of three experiments, read-out: BChE IC50.
The mark [6] stands for this setting: Homo sapiens, SH-SY5Y, MTT, 72 h exposure.
The mark [7] stands for this setting: Mus musculus, N2a, MTT, 72 h exposure.
The mark [8] stands for this setting: Mus musculus, Fibroblast, MTT, 72 h exposure.

T1 sequence (P81908 whole entry): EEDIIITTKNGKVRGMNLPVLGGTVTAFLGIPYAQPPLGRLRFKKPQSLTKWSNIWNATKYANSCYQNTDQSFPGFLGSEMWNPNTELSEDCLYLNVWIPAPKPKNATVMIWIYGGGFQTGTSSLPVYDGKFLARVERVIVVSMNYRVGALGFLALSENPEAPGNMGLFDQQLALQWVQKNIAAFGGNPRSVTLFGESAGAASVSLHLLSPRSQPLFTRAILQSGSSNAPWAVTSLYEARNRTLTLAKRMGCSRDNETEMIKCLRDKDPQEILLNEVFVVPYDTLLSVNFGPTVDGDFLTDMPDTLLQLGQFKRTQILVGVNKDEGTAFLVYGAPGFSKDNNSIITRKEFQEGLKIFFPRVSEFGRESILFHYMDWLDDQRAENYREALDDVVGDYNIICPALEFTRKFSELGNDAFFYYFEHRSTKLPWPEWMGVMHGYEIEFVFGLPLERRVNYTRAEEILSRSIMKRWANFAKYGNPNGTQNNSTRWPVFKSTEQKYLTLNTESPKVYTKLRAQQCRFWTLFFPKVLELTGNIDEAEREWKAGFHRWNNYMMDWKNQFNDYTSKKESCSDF

For `O=C(N/N=C/c1ccc(O)c(O)c1)C1CCN(Cc2ccccc2)C1` (stereo not drawn) [3g, 1-benzyl-N’-[(E)-(3,4-dihydroxyphenyl)methylidene]pyrrolidine-3-carbohydrazide], the inhibition at 1000 µM in experiment [1] (setting [4]) was 28.2%; in experiment [2] it was 2.74%. In addition, the half-inhibitory concentration (IC50) in experiment [1] (setting [5]) is over 1000 µM; in experiment [2] it was over 1000 µM; with SH-SY5Y cells (setting [6]), over 300 µM; in the experiment on Neuro-2a cells (setting [7]), 110 ± 9.1 µM; with CCL-1 cells (setting [8]) it was over 300 µM. For the same compound, the “AChE inhibitory activity in words” value in experiment [2] is “practically inactive”.
Turning to `COc1ccc2[nH]cc(CCNC(C)=O)c2c1` [Melatonin, reference compound], in experiment [1], the IC50 was over 1000 µM and the inhibition at 1000 µM is 4.21 ± 0.88%. For the same compound, in experiment [2], the inhibition at 1000 µM was determined as 1.24% and the IC50 is over 1000 µM. Further, the “Absorbance Day 1” value in experiment [3] (Day 1) was found to be 0.75 ± 0.07. Moreover, in experiment [3] (Day 2), the “Absorbance Day 2” value is reported as 0.80 ± 0.09. For the same compound, the “Absorbance Day 3” value in experiment [3] (Day 3) is given as 0.89 ± 0.05. Besides, the “Absorbance Day 4” value in experiment [3] (Day 4) turned out to be 0.89 ± 0.02. Further, in experiment [3] (Day 5), the “Absorbance Day 5” value was determined as 0.94 ± 0.01.
On to `COc1ccc2c(c1)c(/C=N/NC(=O)CNC(=O)OC(C)(C)C)cn2C` [3k], for which the inhibition at 1000 µM in experiment [1] (setting [4]) was 30.3%; in experiment [2], 3.26%. Also, the IC50 was over 1000 µM in experiment [1] (setting [5]); over 1000 µM in experiment [2]; 131 ± 11.8 µM with SH-SY5Y cells (setting [6]); over 300 µM in the experiment on Neuro-2a cells (setting [7]); over 300 µM in the experiment on CCL-1 cells (setting [8]).
Take `O=C(N/N=C/c1ccc(O)cc1O)C1CCN(Cc2ccccc2)C1` (stereo not drawn) [3f, 1-benzyl-N’-[(E)-(2,4-dihydroxyphenyl)methylidene]pyrrolidine-3-carbohydrazide]: the results for the inhibition at 1000 µM in experiment [1] (setting [4]) and in experiment [2] were 57.2% and 64.1%, respectively. In addition, the half-maximal inhibitory concentration (IC50) came to 709 ± 41.3 µM in experiment [1] (setting [5]); 550 ± 37.1 µM in experiment [2]; 35.8 ± 5.5 µM with SH-SY5Y cells (setting [6]); 12.5 ± 2.4 µM in the experiment on Neuro-2a cells (setting [7]); 150 ± 11.2 µM in the experiment on CCL-1 cells (setting [8]). Further, the “SI AChE” value in experiment [2] (IC50(BChE)/IC50(AChE)) stood at 1.28.
On to `COc1ccc(S(=O)(=O)N/N=C/c2cn(C)c3ccc(OC)cc23)cc1` [5b, 4-methoxy-N’-[(E)-(5-methoxy-1-methyl-1H-indol-3-yl)methylidene]benzenesulfonohydrazide], for which the concentration for half-maximal inhibition (IC50) in experiment [1] (setting [5]) was over 1000 µM; in experiment [2], over 1000 µM; with SH-SY5Y cells (setting [6]), 70.4 ± 4.9 µM; in the experiment on Neuro-2a cells (setting [7]), 30.5 ± 3.2 µM; in the experiment with CCL-1 cells (setting [8]), 38.1 ± 3.5 µM.
As for `COc1ccc(/C=N/NC(=O)Cc2c[nH]c3ccccc23)cc1OC` [3p, N’-[(E)-(3,4-dimethoxyphenyl)methylidene]-2-(1H-indol-3-yl)acetohydrazide], the inhibition at 1000 µM in experiment [1] (setting [4]) was determined as 24%. The IC50 was over 1000 µM in experiment [1] (setting [5]); over 1000 µM in experiment [2]; 87.4 ± 7.7 µM with SH-SY5Y cells (setting [6]); 116 ± 12.8 µM in the experiment on Neuro-2a cells (setting [7]); over 300 µM in the experiment on CCL-1 cells (setting [8]).
In the case of `Cn1cc(/C=N/NC(=O)CNC(=O)OC(C)(C)C)c2ccccc21` [3l, tert-butyl(2-{(2E)-2-[(1-methyl-1H-indol-3-yl)methylidene]hydrazinyl}-2-oxoethyl)carbamate], the inhibition at 1000 µM in experiment [1] (setting [4]) came to 39.1%. Further, the IC50 is over 1000 µM in experiment [1] (setting [5]); over 1000 µM in experiment [2]; 107 ± 8.9 µM with SH-SY5Y cells (setting [6]); over 300 µM with Neuro-2a cells (setting [7]); over 300 µM with CCL-1 cells (setting [8]).
On to `O=S(=O)(N/N=C/c1ccc(Cl)cc1)c1ccccc1` [5l, N’-[(E)-(4-chlorophenyl)methylidene]benzenesulfonohydrazide], for which the IC50 was over 1000 µM in experiment [1] (setting [5]); over 1000 µM in experiment [2]; 99.5 ± 7.8 µM in the experiment on SH-SY5Y cells (setting [6]); 117 ± 11.5 µM with Neuro-2a cells (setting [7]); 131 ± 11.4 µM in the experiment with CCL-1 cells (setting [8]).
In the case of `COc1ccc(S(=O)(=O)N/N=C/c2c[nH]c3ccc(OC)cc23)cc1` [5c, 4-methoxy-N’-[(E)-(5-methoxy-1H-indol-3-yl)methylidene]benzenesulfonohydrazide], the inhibition at 1000 µM in experiment [1] (setting [4]) is 18.2%. The concentration for half-maximal inhibition (IC50) in experiment [1] (setting [5]) was over 1000 µM; in experiment [2], over 1000 µM; with SH-SY5Y cells (setting [6]), 48.3 ± 5.2 µM; in the experiment with Neuro-2a cells (setting [7]) it was 7.5 ± 2.4 µM; in the experiment with CCL-1 cells (setting [8]), 25.7 ± 2.9 µM.
With `COc1ccc(S(=O)(=O)N/N=C/c2cn(C)c3ccccc23)cc1` [5e, 4-methoxy-N’-[(E)-(1-methyl-1H-indol-3-yl)methylidene]benzenesulfonohydrazide], the IC50 was over 1000 µM in experiment [1] (setting [5]); over 1000 µM in experiment [2]; 83.3 ± 4.9 µM in the experiment with SH-SY5Y cells (setting [6]); 19.9 ± 1.7 µM in the experiment on Neuro-2a cells (setting [7]); 180 ± 9.6 µM with CCL-1 cells (setting [8]).
Regarding `COc1ccc2c3c1O[C@H]1C[C@@H](O)C=C[C@@]31CCN(C)C2` [Galanthamine, reference compound], the inhibition at 1000 µM in experiment [1] is 85.8%. The IC50 in the experiment with SH-SY5Y cells (Homo sapiens, SH-SY5Y, 72 h) was over 300 µM; with Neuro-2a cells (Mus musculus, N2a, 72 h) it was over 300 µM; with CCL-1 cells (Mus musculus, Fibroblast, 72 h) it was over 300 µM.
Turning to “N’-[(E)-(5-methoxy-1-methyl-1H-indol-3-yl)methylidene]benzenesulfonohydrazide [5f]”, the 50% inhibitory concentration (IC50) in experiment [1] (setting [5]) is over 1000 µM; in experiment [2], over 1000 µM; in the experiment with SH-SY5Y cells (MTT, 72 h exposure), 132 ± 10.3 µM; with Neuro-2a cells (MTT, 72 h exposure), 135 ± 10.9 µM; in the experiment on CCL-1 cells (MTT, 72 h exposure), 167 ± 11.8 µM.
On to `O=C(N/N=C/c1c(O)cc(O)cc1O)C1CCN(Cc2ccccc2)C1` (stereo not drawn) [3h, 1-benzyl-N’-[(E)-(2,4,6-trihydroxyphenyl)methylidene]pyrrolidine-3-carbohydrazide], for which the figures for the inhibition at 1000 µM in experiment [1] (setting [4]) and in experiment [2] were 76.5% and 73.3%, respectively. Also, in experiment [1] (IC50(AChE)/IC50(BChE)), the “SI BChE” value stood at 1.96. The IC50 in experiment [1] (setting [5]) was 179 ± 11.5 µM; in experiment [2] it was 351 ± 17.9 µM; in the experiment with SH-SY5Y cells (setting [6]), over 300 µM; in the experiment on Neuro-2a cells (setting [7]), over 300 µM; in the experiment on CCL-1 cells (setting [8]) it was over 300 µM.
Take `O=S(=O)(N/N=C/c1cn(Cc2ccccc2)c2ccccc12)c1ccccc1` [5d, N’-[(E)-(1-benzyl-1H-indol-3-yl)methylidene]benzenesulfonohydrazide]: the IC50 in experiment [1] (setting [5]) was over 1000 µM; in experiment [2], over 1000 µM; in the experiment on SH-SY5Y cells (setting [6]), 99.5 ± 7.8 µM; with Neuro-2a cells (setting [7]) it was 117 ± 11.5 µM; in the experiment with CCL-1 cells (setting [8]), 140 ± 8.4 µM. In experiment [2], the inhibition at 1000 µM was 41.7%.
Turning to `COc1cc2c(cc1OC)C(=O)C(CC1CCN(Cc3ccccc3)CC1)C2` (stereo not drawn) [Donepezil, 1-Benzyl-4-[(5,6-dimethoxy-1-indanon-2-yl)methyl]piperidine, reference compound], in experiment [1], the inhibition at 1000 µM is 69.1%.
`O=C(N/N=C/c1ccc(O)cc1)C1CCN(Cc2ccccc2)C1` (stereo not drawn) [3e, 1-benzyl-N’-[(E)-(4-hydroxyphenyl)methylidene]pyrrolidine-3-carbohydrazide]: the inhibition at 1000 µM in experiment [1] (setting [4]) amounted to 12.4%; in experiment [2], 3.84%. For the same compound, the 50% inhibitory concentration (IC50) is over 1000 µM in experiment [1] (setting [5]); over 1000 µM in experiment [2]; 170 ± 10.6 µM in the experiment on SH-SY5Y cells (setting [6]); over 300 µM in the experiment with Neuro-2a cells (setting [7]); over 300 µM in the experiment with CCL-1 cells (setting [8]). Moreover, in experiment [2], the “AChE inhibitory activity in words” value was “practically inactive”.
As for `COc1ccc2[nH]cc(/C=N/NC(=O)CNC(=O)OC(C)(C)C)c2c1` [3j], the inhibition at 1000 µM in experiment [1] (setting [4]) amounted to 17.4%. Besides, the concentration for half-maximal inhibition (IC50) is over 1000 µM in experiment [1] (setting [5]); over 1000 µM in experiment [2]; 150 ± 12.3 µM with SH-SY5Y cells (setting [6]); over 300 µM with Neuro-2a cells (setting [7]); over 300 µM in the experiment on CCL-1 cells (setting [8]).
Regarding `COc1ccc(/C=N/NC(=O)c2c[nH]c3ccccc23)cc1OC` [3o, N’-[(E)-(3,4-dimethoxyphenyl)methylidene]-1H-indole-3-carbohydrazide], the half-maximal inhibitory concentration (IC50) was over 1000 µM in experiment [1] (setting [5]); over 1000 µM in experiment [2]; 70 ± 7.2 µM in the experiment with SH-SY5Y cells (setting [6]); 126 ± 10.7 µM in the experiment on Neuro-2a cells (setting [7]); over 300 µM with CCL-1 cells (setting [8]).

In general, inhibition refers to the percentage by which the read-out fell short of the control. One may read the IC50 as the midpoint of a concentration-inhibition curve.
